From patent US20210239702A1, “METHODS FOR PREDICTING RESPONSIVENESS OF LUNG CANCER PATIENTS TO HER2-TARGETING THERAPIES” (MEMORIAL SLOAN KETTERING CANCER CENTER, priority 2018, published 2021)

Columns and labels:
HER2 mutant lung cancers = system: HER2 mutant lung cancers
Text: (§1) Patients with stage 4 or recurrent HER2 mutant lung cancers were enrolled in the cohort, as illustrated in the basket trial scheme in FIG. 1. Other cohorts of this basket trial included HER2 amplified lung, bladder and other solid tumors, as illustrated by FIG. 1. HER2 mutations were identified through next generation sequencing (NGS) including exon 20 insYVMA, insGSP, insTGT, single base pair substitutions L755A, L755S, V777L, V659E, S310F or other likely activating mutations. Other inclusion criteria included age (≥18 years old), Karnofsky performance status (≥70%), measurable disease by Response Evaluation Criteria in Solid Tumors (RECIST) v1.1, and adequate left ventricular, bone marrow, and hepatic function.
Physical examination and safety assessments were performed every 3 weeks. Tumor assessments using contrast enhanced computed tomography of the chest, abdomen, and pelvis were performed at baseline, week 6, week 12, and every 12 weeks thereafter until disease progression was observed. Brain imaging was not routinely performed unless clinically indicated. Left ventricular ejection fraction measurements by echocardiography or multi-gated acquisition scan were performed at baseline then every 3 months. […] Secondary objectives included assessment of progression-free survival (PFS) and toxicity according to the National Cancer Institute Common Terminology Criteria for Adverse Events version 4.1 (NCI CTCAE v4.1). The molecular associations between HER2 mutations, HER2 amplification and HER2 protein expression were examined using different molecular diagnostic assays whenever archival tissue was available. NGS assessed for HER2 mutation and amplification, fluorescence in situ hybridization (FISH) assessed for HER2 amplification, and HER2 protein overexpression was assessed by immunohistochemistry (IHC) and quantitative mass spectrometry. FISH was performed using FDA approved probe sets (PathVysion, Abbott Molecular, Chicago, Ill. and HER2 IQFISH pharmDx, Agilent, Santa Clara, Calif.) and positive HER2 amplification was defined as HER2/CEP17 ratio ≥2.0. HER2 protein by IHC was assessed using the 4B5 Ventana antibody (Ventana Medical Systems, Oro Valley Ariz.). Quantitative HER2 protein by selected reaction monitoring mass spectrometry on fixed-formalin paraffin-embedded tissue was performed using methods previously validated in breast cancers, with ≥740 amol/ug as the cutoff for high HER2 expression (see Nuciforo P., et al., Mol. Oncol., 10:138-147 (2016)).
Target accrual was a minimum of 7 patients (stage 1) and maximum of 18 patients (stage 1 and 2) in each cohort. The primary endpoint was best confirmed overall response rate (ORR) per RECIST v1.1. The Simon's optimal two-stage design was employed with a multiple testing adjusted type I error rate for each cohort. For a targeted agent where higher response rates were expected, a true ORR of ≤10% was considered unacceptable (null hypothesis), whereas a true ORR of ≥40% merited further study (alternative hypothesis). In the first stage, 7 patients were accrued; if there were no responses observed at interim analysis of the 7 patients in a particular cohort, the cohort was closed. Otherwise, 11 additional patients were accrued for a total of 18 patients. […] The overall family-wise error rate at the study level was <10%. The exact 95% CI for ORR was calculated using the Clopper-Pearson method. PFS time was estimated by the Kaplan-Meier method. Follow-up time was calculated from the start of treatment to the most recent patient follow-up assessment.

[1] = system: HER2-amplified salivary gland cancers; conditions: FLIM-FRET positive in 3/3
Text: as §1

ado-trastuzumab emtansine
outcome of patients with active untreated brain metastases at enrollment (HER2 mutant lung cancers; 2 patients, first response assessment): both patients had progression of disease systemically and in the central nervous system | patients with progression of disease as best response (HER2 mutant lung cancers; 3 of 18 patients): 17% | responders among patients pretreated with prior systemic therapy (HER2 mutant lung cancers; 6 of 15 pretreated patients): 40% | median PFS for the responders (HER2 mutant lung cancers; 95% CI 4 months to not reached): 6 months | median PFS for all patients (HER2 mutant lung cancers; N=18, 95% CI 3 to 9 months): 5 months | overall response rate (ORR, all partial and confirmed) (HER2 mutant lung cancers; RECIST v1.1, 3.6 mg/kg IV every 21 days, 18 patients, 95% CI 22-69%): 44% | patients who achieved stable disease (HER2 mutant lung cancers; in vivo): 39% | patients with confirmed radiologic partial response (HER2 mutant lung cancers; out of 18 patients with ERBB2-mutant lung cancers): 8 | longest PFS observed / durable disease control (HER2 mutant lung cancers; patient with stable disease as best response, -27% tumor shrinkage): ≥ 11 months | median time to response from start of treatment (HER2 mutant lung cancers; range 1 to 4 months): 2 months | median duration of response (HER2 mutant lung cancers; range 2 to 9 months): 4 months | response among FLIM-FRET positive patients [1]: all 3 patients responded
